Measured values published in patent publication US6407064B2, “Aminoalcohol derivative and medicament comprising the same” (Seikagaku Corporation, priority 1999, dated 2002).

Tests used:
neurite = conditions: literature; cited from earlier work
[1] = target: T1, enzyme for glucosylceramide biosynthesis (Homo sapiens, UniProt Q16739); conditions: J. Lipid Res. 28: 565-571 (1987); cited from earlier work
T1 sequence (Q16739 1-394): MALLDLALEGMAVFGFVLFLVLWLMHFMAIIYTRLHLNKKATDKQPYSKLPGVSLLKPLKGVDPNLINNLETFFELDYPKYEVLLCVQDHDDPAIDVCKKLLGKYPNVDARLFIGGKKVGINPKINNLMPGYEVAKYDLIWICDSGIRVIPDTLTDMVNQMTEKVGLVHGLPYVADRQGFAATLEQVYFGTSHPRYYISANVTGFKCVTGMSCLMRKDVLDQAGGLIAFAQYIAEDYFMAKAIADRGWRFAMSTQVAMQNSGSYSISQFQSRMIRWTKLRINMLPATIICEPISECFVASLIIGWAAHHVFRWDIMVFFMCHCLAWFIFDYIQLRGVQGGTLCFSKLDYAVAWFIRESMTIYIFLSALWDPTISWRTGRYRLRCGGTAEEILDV

[2] = tested on: GSLs which are produced starting with glucosylceramide; conditions: J. Lipid Res. 28: 565-571 (1987); cited from earlier work
synaptic function = conditions: Biochem. Biophys. Res. Commun. 222: 494-498 (1996); cited from earlier work
[3] = tested on: cultured neurocytes of rat fetal cerebral cortex; assay: Activity of accelerating synapse formation (intracellular calcium ion level, fura-2); assay type: cell-based; conditions: relative value, L-PDMP regarded as 100; compound 20 μM; assay on 10th day of culture
Description: The activity of accelerating synapse formation was determined by measuring change of an intracellular calcium ion level resulted from the synchronized spontaneous ignition of neurocytes which is considered to show synapse activities by means of an intracellular calcium ion multipoint observation system using a calcium ion fluorescence indicator, fura-2.
Concretely, rat fetuses at the 18th day of pregnancy were taken out from Wistar rats (available from Japan SLC), and cerebral cortices of the fetuses were taken out and cut into small pieces. After having been treated with papain (manufactured by Worthington Biochemical) at 37° C. for 30 minutes, the pieces were suspended into a Dulbecco modified Eagle's medium containing 5% bovine neonatal serum and 5% equine serum and the cortices were dissociated into single cells with Cell Striner (70 μm, Falcon). Then, the cells were inoculated into a flexiperm plate coated with 0.5% polyethyleneimine (1.0×10^6 cells/500 μl/well), and was cultured in 7% CO2 incubator at 37° C. The medium was exchanged on 2nd, 5th, and 8th days after the culture had been started. The activity of the compound of the present invention was measured using the primary culture. The compound was added at the time when the medium was exchanged and the concentration of the compound was maintained to be 20 μM. Assay was carried out on 10th day after the culture had been started.
(2) Measurement of Activity of Accelerating Synapse Formation
Concretely, after the medium of each well where cells were cultured was substituted with basic salt solution (BSS), 3 μl of a DMSO solution (1 mg/ml) of a calcium ion fluorescence indicator fura-2 was added, and the whole was kept at 37° C. for 1 hour.

[4] = tested on: ganglioside GM3, mouse B16 melanoma cells; assay: Synthesized amount of ganglioside GM3 (HPTLC densitometry); assay type: cell-based; conditions: relative value, control regarded as 100, test compound 25 μM, 24 hours
Description: (§1) A liquid where the cells of mouse B16 melanoma were suspended was prepared with Dulbecco modified Eagle's medium containing 10% bovine fetal serum, inoculated into a culture flask (175 cm^2) in an amount of 0.8×10^7 cells/20 ml, and cultured in 5% CO2 incubator at 37° C. The treatment with a test compound (25 μM) was started through the exchange of three fourths of the medium 24 hours after the culture was started. Twenty-four hours after the treatment with the test compound was started, the culture mixture was treated with PBS containing 0.02% EDTA and PBS containing 0.25% trypsin successively to recover the cells.
Then, a mixed solvent of chloroform:methanol=2:1 (4 ml) was added to the cell pellet and, after the subjection to an ultrasonication for 30 minutes, the cell pellet solution was allowed to stand at room temperature for a night and the supernatant was recovered. Furthermore, a mixed solvent of chloroform:methanol=1:1 (4 ml) was added to the residual pellet after the recovery of the supernatant, and a similar operation was carried out. The resulting supernatant was combined with the first supernatant and the whole was evaporated to dryness under a nitrogen stream. To the total lipid fraction was added a 0.1 N methanolic sodium hydroxide solution (2.0 ml) and the mixture was allowed to stand at 40° C. for 2 hours. Thereafter, 1 N hydrochloric acid (0.2 ml) was added thereto and the mixture was allowed to stand for 1.5 hours.
Then, the mixture was washed with n-hexane (2 ml×2) and, after the lower layer thus washed was evaporated to dryness under a nitrogen stream, the residue was desalinated by gel filtration chromatography (Sephadex LH-20 (manufactured by Amersham Pharmacia Biotech), diameter of 10 mm, height of 120 mm) using chloroform:methanol=2:1 as the eluting solvent. […] After orcinol-sulfuric acid reagent had been sprayed on the plate, it was heated at 110° C. for 5 minutes and colored spot of ganglioside GM3 was quantitatively determined by means of densitometer (a measuring wavelength of 505 nm). […]

[5] = tested on: enzyme for ganglioside GM3 synthesis, mouse B16 melanoma cell; assay: Activity of enzyme for ganglioside GM3 synthesis (14C-Gal incorporated in total lipid fraction); assay type: cell-based; conditions: relative value, control regarded as 100; test compound 24 μM, 24 hours; 14C-Gal incorporation
Description: The gangliosides produced by mouse B16 melanoma cell are almost composed of ganglioside GM3. Therefore, the activity of the enzyme for ganglioside GM3 synthesis can be determined conveniently by measuring the amount of ^14C-Gal incorporated in a total lipid-extracted fraction through a liquid layer partition method.
as §1, with “a 12-well plate” for “a culture flask (175 cm^2)”, “of 2.0×10^5 cells/ml/well,” for “of 0.8×10^7 cells/20 ml,”, “compound (24” for “compound (25”, “μM) and the addition of ^14C-Gal (22.2 kBq/11.7 nmol/6 μl/well) were” for “μM) was”, “of total amount” for “of three fourths”
Then, a mixed solvent of chloroform:methanol=2:1 (3 ml) was added to the cell pellet and, after the subjection to an ultrasonication for 30 minutes, the supernatant was recovered. Furthermore, a mixed solvent of chloroform:methanol=1:1 (3 ml) was added to the residual pellet after the recovery of the supernatant, and a similar operation was carried out. The resulting supernatant was combined with the first supernatant and the whole was evaporated to dryness under a nitrogen stream. A desalinated water (1.0 ml) was added to the total lipid-extracted fraction. After having been subjected to an ultrasonication for 1 minute, the mixture was transferred into a dialysis tube and dialyzed against water for 2 days. The sample after the dialysis was transferred into a vial for liquid scintillation counter and, after the addition of scintillator, the activity of incorporating ^14C-Gal was measured on scintillation counter.
The values of activity of the compounds of the present invention are shown as relative values obtained by calculation on the basis that the value of a control (a group where no test compound was added) is regarded as 100 in Table 3 below.

SMILES | effect on neurite extension (neurite) | effect on enzyme for glucosylceramide biosynthesis [1] | intracellular content of GSLs [2] | effect on synaptic function (synaptic function) | Activity of synapse formation [3] | Glycolipid content (Test Example 3) [4] | Activity of accelerating glycolipid biosynthesis (Test Example 2) [5]
CCCCCCCCCC(=O)N[C@H](CN1CCOCC1)[C@H](O)c1ccccc1 [D-threo-PDMP, D-threo-1-phenyl-2-decanoylamino-3-morpholino-1-propanol] | suppresses the extension of neurite | specifically inhibits | remarkably reduces intracellular content of all GSLs | suppresses synaptic function | – | – | –
CCCCOC(=O)CCC(=O)N[C@@H](CN1CCOCC1)[C@@H](O)c1ccccc1 [Example 5, (1S,2S)-2-(n-butoxy)butanedioylamino-3-morpholino-1-phenyl-1-propanol] | – | – | – | – | 92.5 | 131.2 | 122.3
O=C(O)CCCCCCCCC(=O)N[C@@H](CN1CCOCC1)[C@@H](O)c1ccccc1 [Example 25, (1S,2S)-2-(9-carboxynonanoyl)amino-3-morpholino-1-phenyl-1-propanol] | – | – | – | – | – | 114.5 | 89.2
